Assays:
PIN8 [1] = target: T1, PIN8 (Arabidopsis thaliana, UniProt Q9LFP6); assay: cryo-EM structure at […] Å (inward-open); Ki from SSM electrophysiology on proteoliposomes; format: biochemical
T1 construct: full-length, tag-free; model residues 1–164 and 206–367, homodimer
T1 sequence (Q9LFP6 1-367): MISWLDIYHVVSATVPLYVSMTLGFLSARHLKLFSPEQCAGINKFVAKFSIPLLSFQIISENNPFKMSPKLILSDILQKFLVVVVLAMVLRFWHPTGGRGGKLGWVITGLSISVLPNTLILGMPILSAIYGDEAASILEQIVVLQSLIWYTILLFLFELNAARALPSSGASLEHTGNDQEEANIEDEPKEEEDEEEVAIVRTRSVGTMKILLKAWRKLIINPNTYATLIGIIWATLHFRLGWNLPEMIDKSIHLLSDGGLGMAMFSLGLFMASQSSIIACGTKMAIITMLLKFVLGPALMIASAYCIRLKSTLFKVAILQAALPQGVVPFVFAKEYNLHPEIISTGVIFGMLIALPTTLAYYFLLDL

PIN8 [2] = target: T1, PIN8; assay: cryo-EM structure at […] Å (outward-open); apparent Kd by SSM electrophysiology competition with NPA binding current
[3] = target: the molecule itself; assay: cryo-EM structure; purified tag-free PIN8 reconstituted in peptidisc; apo (2.9 Å), with 15 mM IAA (3.2 Å) and with 2 mM NPA (3.4 Å); C2 symmetry imposed, parallel C1 refinement showed no differences between the two monomers

Molecule: O=C(O)c1ccccc1C(=O)Nc1cccc2ccccc12 [NPA, naphthylphthalamic acid]
- Ki (PIN8 [1]): 1.9 µM

Molecule: O=C(O)Cc1c[nH]c2ccccc12 [IAA, Indole-3-acetic acid]
- Kd (PIN8 [2]): 39.9 µM

B1: Arabidopsis thaliana PIN8 (PIN-FORMED 8 auxin transporter) (natural protein, UniProt Q9LFP6 1-367, looked up)
chain: MISWLDIYHVVSATVPLYVSMTLGFLSARHLKLFSPEQCAGINKFVAKFSIPLLSFQIISENNPFKMSPKLILSDILQKFLVVVVLAMVLRFWHPTGGRGGKLGWVITGLSISVLPNTLILGMPILSAIYGDEAASILEQIVVLQSLIWYTILLFLFELNAARALPSSGASLEHTGNDQEEANIEDEPKEEEDEEEVAIVRTRSVGTMKILLKAWRKLIINPNTYATLIGIIWATLHFRLGWNLPEMIDKSIHLLSDGGLGMAMFSLGLFMASQSSIIACGTKMAIITMLLKFVLGPALMIASAYCIRLKSTLFKVAILQAALPQGVVPFVFAKEYNLHPEIISTGVIFGMLIALPTTLAYYFLLDL
notes: PIN8, Arabidopsis thaliana, UniProt Q9LFP6; the PIN8 gene cloned in a p423_GAL1-based plasmid; final models include residues 1-164 and 206-367 of 367 residues total; the cytosolic loop 165-205 is in the protein but not visible in the maps; also called AtPIN8; apo-PIN8; source: S. cerevisiae strain DSY-5, purified (Ni-NTA, TEV cleavage, SEC); in peptidisc or in LMNG detergent
- stoichiometry N [3]: 2
